# Experimental data reported in patent US20150231109A1, “COMBINATIONS (CATECHINS AND METHOTREXATE) FOR USE IN THE TREATMENT OF MELANOMAS” (UNIVERSIDAD DE MURCIA, priority 2012, published 2015).
# Marks after values point to notes of the source that are not given here.
# Experiments:
# E2F1 = assay: MALDI-TOF mass spectroscopy of immunoprecipitated E2F1 tryptic digests from SK-MEL-28 cells; format: cell-based, human; settings: SK-MEL-28, 24 h, normalized to internal matrix control
# Procedure: SK-MEL-28 whole cell lysates were immunoprecipitated as described above but with two variations. First, the lysis and dilution buffers contained 2.5 μM trichostatin (a potent deacetylase inhibitor) and 20 μM trans-2-phenylcyclo-propylamine (an irreversible inhibitor of lysine-specific demethylase 1, LSD1). Second, the E2F1 antibody was covalently coupled to Dynabeads® (Invitrogen). After immunoprecipitation and elution, bound proteins were digested with trypsin according to standard procedures (Shevchenko). Data were recorded and processed with Agilent MassHunter Workstation Software for obtaining the Peptide Mass Fingerprint (PMF). The PMF result mass spectra were searched against the E2F1 protein sequence with carbamidomethylation of cysteine as fixed modification and methylation and acetylation of lysine residues, oxidation of methionine residues and phosphorylation of serine residues as variable modifications. Peptide mass tolerance was set to 50 ppm and a maximum of three missed cleavages was considered.
# SK-MEL-28 melanoma cells = assay: HPLC/MS analyses of MTX, TMECG-QM and DHF in whole cell extracts; format: cell-based, human; settings: SK-MEL-28 whole cell extracts, 24 h, MTX 1 μM and/or TMECG 10 μM
# Procedure: By way of example, the present inventors have shown that an active agent, such as MTX, may be used to increase TYR expression, thereby increasing the conversion of a catechin to its quinone methide form. The inventors have undertaken HPLC analyses of MTX, TMECG-QM, and DHF in whole cell extracts of SK-MEL-28 melanoma cells that were subjected to MTX (1 μM) and TMECG (10 μM) individual and combined treatments (see Table 1).
# SK-MEL-28 cells [1] = assay: Apoptosis assay (cytoplasmic histone-associated DNA fragmentation ELISA), SK-MEL-28; format: cell-based, human; settings: SK-MEL-28, MTX alone
# Procedure: FIGS. 2A-N. MTX and TMECG combination therapy induces apoptosis via dTTP depletion and DNA-damage. A, Intracellular accumulation of TMECG-QM in SK-MEL-28 treated with TMECG or MTX/TMECG for 24 h. B, Proliferation assays performed of control or MTX/TMECG-treated (10 μM/1 μM) SK-MEL-28 cells. C, Quantification of effects of MTX/TMECG treatment on SK-MEL-28 cells (*P<0.05 with respect to TMECG-treated cells). For time course assay MTX (1 μM) and TMECG (10 μM) were used. D, dNTP quantification in melanoma cells subjected to indicated treatments (*P<0.05). […] K, quantification of γH2AX foci in SK-MEL-28 cells treated with MTX (1 μM) and/or TMECG (10 μM), or X-rays. […] N, Cell cycle profile determined by flow cytometry of SK-MEL-28 cells treated with a sublethal dose of MTX/TMECG. […]
# The induction of apoptosis was assessed by performing cytoplasmic histone-associated DNA fragmentation using a kit from Roche Diagnostics (Barcelona, Spain). […] The amount of nucleosomes is photometrically quantified at 405 nm by the peroxidase activity retained in the immunocomplexes. Apoptosis was defined as the specific enrichment of mono- and oligonucleosomes in the cytoplasm and was calculated by dividing the absorbance of treated samples by the absorbance of untreated samples after correcting for the number of cells. […]
# MCF7 = assay: HPLC/MS/MS intracellular levels of MTX in MCF7; format: cell-based; settings: MCF7, same MTX treatment (24 h, 1 μM)
# TYR = TYR mRNA and protein expression in melanoma cell lines; format: cell-based, human; settings: MTX 1 μM; SK-MEL-28 and multiple melanoma cell lines
# Procedure: H, Semiquantitative RT PCR of TYR, TYRP1, Pmel17, MART1, and Rab27a mRNA. SK-MEL-28 and siMITF-SK-MEL-28 cells were treated for 5 h with 1 μM MTX. mRNA levels are presented relative to β-actin mRNA and compared to their expression levels in untreated cells (1-fold).
# (§1) mRNA extraction, cDNA synthesis, and conventional and qRT-PCR were performed under standard conditions. Primers were designed using Primer Express version 2.0 software (Applied Biosystems, Foster City, Calif.) and synthesized by Invitrogen (Barcelona, Spain).
# (§2) Whole cell lysates were collected by adding SDS sample buffer. After extensive sonication, samples were boiled for 10 min and subjected to SDS-PAGE. Proteins were then transferred to nitrocellulose membranes and analyzed by immunoblotting (ECL Plus, GE Healthcare, Barcelona, Spain).
# MITF = MITF mRNA and protein expression (RT-PCR, western blot, immunofluorescence) in melanoma cell lines; format: cell-based; settings: MTX 1 μM; mouse (B16/F10) and human (SK-MEL-28, G361, A375) cell lines
# Procedure: D, Immunofluorescence of control or MTX-treated (3 h) 501 MEL cells using anti-MITF and DAPI.
# as §1, §2
# Confocal microscopy was carried out using a Leica TCS 4D confocal microscope (Wetzlar, Germany). For indirect immuno-fluorescence studies, preparation of the cells on glass slides were fixed with cold acetone for 5 min, and washed with PBS. The cells were incubated with 3% bovine serum albumin (BSA) for 20 min and then 2 h at room temperature with primary antibodies (diluted 1:200 in PBS containing 1% BSA) as described in each experiment. The cells were washed three times in PBS and incubated for 1 h at room temperature with Alexa Fluor Dyes (Invitrogen) as secondary antibodies. After 3 washes with PBS, the cells were incubated with 0.01% 4′-6-diamidino-2-phenylidene (DAPI; Sigma) in water for 5 min. […]
# Caco-2 = assay: HPLC/MS/MS intracellular levels of MTX in Caco-2; format: cell-based; settings: Caco-2, same MTX treatment (24 h, 1 μM)
# SK-MEL-28 cells [2] = assay: Proliferation assay, SK-MEL-28; format: cell-based, human; settings: SK-MEL-28, MTX alone
# Procedure: B, Proliferation assays performed of control or MTX/TMECG-treated (10 μM/1 μM) SK-MEL-28 cells. […] For time course assay MTX (1 μM) and TMECG (10 μM) were used. […] Data were obtained in triplicate in two independent experiments. […] H, effects of MTX/TMECG (1 μM/10 μM) on cell number of indicated cell lines. Error bars show mean±SD. […] Error bars show mean±SD.
# Melanoma cell lines of human and mouse origin were obtained from ATCC and maintained in the appropriate culture medium supplemented with 10% FBS and antibiotics. Cell viability was evaluated using the 3-(4,5-dimethylthiazol-2-yl)-2,5-diphenyltetrazolium bromide (MTT) cell proliferation assay.
compound,measurement,setting,value
"CN(Cc1cnc2nc(N)nc(N)c2n1)c1ccc(C(=O)N[C@@H](CCC(=O)O)C(=O)O)cc1 [MTX, methotrexate]",Intensity of phosphorylated (S364) E2F1 peptide,E2F1; CN 11,24
same,Intensity of phosphorylated (S31) E2F1 peptide,E2F1; CN 46,12
same,"Intensity of hyperacetylated (K117,120,125) E2F1 peptide",E2F1; CN 49,329
same,Intensity of non-methylated (K185) E2F1 peptide (K)NHIQWLGSHTTVGVGGR(L),E2F1; CN 64,379
same,Intensity of non-phosphorylated (S31) E2F1 peptide,E2F1; CN 295,312
same,Intensity of non-phosphorylated (S364) E2F1 peptide,E2F1; CN 318,310
same,Intensity of non-acetylated E2F1 peptide (K)SPGEK(S),E2F1; CN 320,20
same,Intensity of non-acetylated E2F1 peptide (R)HPGK(G),E2F1; CN 325,16
same,Intensity of methylated (K185) E2F1 peptide,E2F1; CN 355,18
same,MTX intracellular concentration,SK-MEL-28 melanoma cells,<0.001* pmol/10^6 cells
same,induction of apoptosis,SK-MEL-28 cells [1],did not induce apoptosis
same,intracellular levels of MTX,MCF7,1.3 ± 0.4 pmol/106 cells
same,mRNA expression of MITF differentiation target TYR and TYR protein expression,TYR,increased
same,MITF mRNA and protein,MITF,increased
same,intracellular levels of MTX,Caco-2,0.8 ± 0.3 pmol/106 cells
same,proliferation,SK-MEL-28 cells [2],reduced proliferation
